According to PubChem BioAssay AID720643 (The Scripps Research Institute Molecular Screening Center, 2013):
Activity calls are given as the source filed them.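 How the source made its calls: active means EC50 of 10 µM or lower; inactive means EC50 above 10 µM.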

What follows are molecules tested against 5-hydroxytryptamine receptor 2A (Mus musculus) (UniProt P35363) (assay: mouse HTR2A agonist potency, beta-arrestin, late-stage follow-up, cell-based, luminescence, CHO-K1, powder samples, dose response (AID 720643)). Settings: CHO-K1 mHTR2A beta-arrestin PathHunter luminescence.
5-hydroxytryptamine receptor 2A (Mus musculus), sequence (P35363 whole entry, looked up): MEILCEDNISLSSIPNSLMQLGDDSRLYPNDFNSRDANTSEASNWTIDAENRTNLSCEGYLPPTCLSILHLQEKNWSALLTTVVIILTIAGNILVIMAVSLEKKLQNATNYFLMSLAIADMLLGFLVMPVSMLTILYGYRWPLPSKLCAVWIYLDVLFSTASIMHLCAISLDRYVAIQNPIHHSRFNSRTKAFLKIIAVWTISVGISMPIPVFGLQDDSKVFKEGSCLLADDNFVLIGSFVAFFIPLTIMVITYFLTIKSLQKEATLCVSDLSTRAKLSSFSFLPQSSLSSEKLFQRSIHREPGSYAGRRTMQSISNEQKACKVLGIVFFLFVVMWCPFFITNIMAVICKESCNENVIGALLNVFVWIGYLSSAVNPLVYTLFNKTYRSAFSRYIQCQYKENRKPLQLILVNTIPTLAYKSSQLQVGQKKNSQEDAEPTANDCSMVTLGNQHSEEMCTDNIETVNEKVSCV
For NC[C@@H]1O[C@H](C23CC4CC(CC(C4)C2)C3)Cc2c1ccc(O)c2O, the EC50 was > 76.1 µM (inactive).
With CN(c1ccc(C(=O)N2CCN(Cc3ccccc3)CC2)cc1)S(=O)(=O)c1ccc(Cl)cc1 the EC50 was > 76.1 µM (inactive).
For CC(=O)N1CCc2cc(C(=O)CN3CCN(c4cccc(Cl)c4)CC3)ccc21, the EC50 was > 76.1 µM (inactive).
In the case of COc1ccc(CN2CCN(c3ncccn3)CC2)c(C)c1C, the EC50 is reported as > 76.1 µM (inactive).
For Cc1cccc(CN2CCN(c3ccccn3)CC2)c1, the EC50 was > 76.1 µM (inactive).
In the case of NC1CCc2cc(O)c(O)cc2C1 (stereo not drawn), the EC50 is reported as > 76.1 µM (inactive).
COc1cc(CN2CCN(c3ncccn3)CC2)cc(OC)c1 was tested, and the EC50 was > 76.1 µM (inactive).
With Cc1ccc(CN2CCN(c3ccccn3)CC2)s1 the EC50 was > 76.1 µM (inactive).
With CC1(C)C(C=C(Cl)Cl)C1C(=O)N1CCN(Cc2ccccc2)CC1 (stereo not drawn) the EC50 was > 76.1 µM (inactive).
With CCOc1ccc(NC(=O)CCN2CCN(c3ccccc3F)CC2)cc1 the EC50 was > 76.1 µM (inactive).
Fc1ccc(F)c(CN2CCN(c3ncccn3)CC2)c1 was tested, and the EC50 was > 76.1 µM (inactive).
With Clc1ccc(CN2CCN(c3ncccn3)CC2)cc1 the EC50 was > 76.1 µM (inactive).
CCn1c(=O)cc(SCC(=O)NCCCN2CCN(c3ccccc3F)CC2)c2ccccc21 was tested, and the EC50 was > 76.1 µM (inactive).
For Cc1ccsc1CN1CCN(c2ccccn2)CC1, the EC50 was > 76.1 µM (inactive).
For OCC1(Cc2cccc(C(F)(F)F)c2)CCN(Cc2cc3ccccc3o2)CC1, the EC50 was > 76.1 µM (inactive).
CC(=O)N1CCC(N2CCN(c3ccccc3F)CC2)CC1 was tested, and the EC50 was > 76.1 µM (inactive).
For Clc1ccccc1CN1CCN(c2ncccn2)CC1, the EC50 was > 76.1 µM (inactive).
For COc1ccc(CN2CCN(c3ccccn3)CC2)c(OC)c1, the EC50 was > 76.1 µM (inactive).
Fc1ccccc1CN1CCN(c2ncccn2)CC1 was tested, and the EC50 was > 76.1 µM (inactive).
With CC(COc1ccccc1)N1CCC(CO)(Cc2ccccc2)CC1 (stereo not drawn) the EC50 was > 76.1 µM (inactive).
For COc1cccc(OCC(O)CN2CCN(c3ccccn3)CC2)c1 (stereo not drawn), the EC50 was > 76.1 µM (inactive).
CC1CC(C)CN(CCOc2cccc(Cl)c2Cl)C1 (stereo not drawn) was tested, and the EC50 was > 76.1 µM (inactive).
In the case of Oc1ccc(CN2CCN(c3ncccn3)CC2)cc1, the EC50 is reported as > 76.1 µM (inactive).
In the case of Fc1cccc(CN2CCN(c3ncccn3)CC2)c1, the EC50 is reported as > 76.1 µM (inactive).
With CCOC(=O)N1CCN(Cc2ccc(OCC(O)CN3CCCCC3)cc2)CC1 (stereo not drawn) the EC50 was > 76.1 µM (inactive).
COc1ccc(CN2CCN(C(=O)c3ccco3)CC2)cc1OCc1ccccc1 was tested, and the EC50 was > 76.1 µM (inactive).
For Brc1ccc(CN2CCN(c3ccccn3)CC2)s1, the EC50 was > 76.1 µM (inactive).
With CCOc1cc(CN2CCN(C(=O)c3ccco3)CC2)ccc1OC the EC50 was > 76.1 µM (inactive).
For c1ccc(CN2CCN(c3ncccn3)CC2)cc1, the EC50 was > 76.1 µM (inactive).
In the case of Cn1cc(C(F)(F)F)nc1-c1ccc(OCC(O)CNCCOc2ccc(O)c(C(N)=O)c2)cc1 (stereo not drawn), the EC50 is reported as > 76.1 µM (inactive).
In the case of COc1cc(Br)cc(CN2CCN(c3ncccn3)CC2)c1O, the EC50 is reported as > 76.1 µM (inactive).
O=C(c1ccco1)N1CCN(Cc2ccc(Cl)cc2)CC1 was tested, and the EC50 was > 76.1 µM (inactive).
For c1ccc(N2CCN(Cc3ccsc3)CC2)nc1, the EC50 was > 76.1 µM (inactive).
In the case of CC(C)C[C@H]1C(=O)N2CCC[C@H]2[C@]2(O)O[C@](NC(=O)[C@@H]3C=C4c5cccc6[nH]c(Br)c(c56)CC4N(C)C3)(C(C)C)C(=O)N12 (stereo partly drawn), the EC50 is reported as > 76.1 µM (inactive).
CCc1ccc(CN2CCN(C(=O)c3ccco3)CC2)cc1 was tested, and the EC50 was > 76.1 µM (inactive).
With COc1ccc(CC2(CO)CCN(Cc3cc4ccccc4o3)CC2)cc1 the EC50 was > 76.1 µM (inactive).
With COc1ccccc1C(=O)NCCN1CCN(c2ccccc2)CC1 the EC50 was > 76.1 µM (inactive).
C=CCN1CCc2nc(N)sc2CC1 was tested, and the EC50 was > 76.1 µM (inactive).
With CCCN(CCC)C1CCc2cccc(O)c2C1 (stereo not drawn) the EC50 was > 76.1 µM (inactive).
In the case of COc1cccc(-n2cc(CNCc3cn(C)nc3-c3ccccc3F)cn2)c1, the EC50 is reported as > 76.1 µM (inactive).
CCOC(=O)C1CCN(Cc2cccc(Oc3ccc(Cl)cc3)c2)CC1 was tested, and the EC50 was > 76.1 µM (inactive).
In the case of Cc1ccc(CN2CCN(c3ncccn3)CC2)o1, the EC50 is reported as > 76.1 µM (inactive).
In the case of c1ccc(COc2ccc(CN3CCN(c4ccccn4)CC3)cc2)cc1, the EC50 is reported as > 76.1 µM (inactive).
Cc1cccc(CN2CCN(c3ncccn3)CC2)c1 was tested, and the EC50 was > 76.1 µM (inactive).
O=C(CN1CCN(c2ccccn2)CC1)Nc1ccc(Oc2ccccc2)cc1 was tested, and the EC50 was > 76.1 µM (inactive).
COc1ccc(CN2CCN(c3ncccn3)CC2)c(OC)c1 was tested, and the EC50 was > 76.1 µM (inactive).
In the case of OC(COc1ccc2cc(Br)ccc2c1)CN1CCN(c2ccccn2)CC1 (stereo not drawn), the EC50 is reported as > 76.1 µM (inactive).
For COC(=O)C1=C(Cn2cnc3ccccc32)NC(=O)NC1c1cc(C)ccc1C (stereo not drawn), the EC50 was 3.47 µM.
With CCCN1CCC[C@H](c2cccc(O)c2)C1 the EC50 was > 76.1 µM (inactive).
Clc1ccc(CN2CCN(c3ncccn3)CC2)cc1Cl was tested, and the EC50 was > 76.1 µM (inactive).
In the case of Brc1cccc(CN2CCN(c3ncccn3)CC2)c1, the EC50 is reported as > 76.1 µM (inactive).
For Cc1ccc(CN2CCN(c3ncccn3)CC2)c(C)c1, the EC50 was > 76.1 µM (inactive).
In the case of Clc1ccccc1CN1CCN(c2ccccc2)CC1, the EC50 is reported as > 76.1 µM (inactive).
